The conditions of series [1]: Arzneimittelforschung 27(1977) p. 132; cited from earlier work.
For series [2] the following is noted: Antibiotiki 24(1979) p.659; cited from earlier work.
Series [3] in a line: Toxicity test in mouse (LD50, intraperitoneal application). The following applies: in vivo, ip. An excerpt: The results of these toxicity tests on mouse and rat are shown in the following table as well as the effective dosage: […]

Structures are written as SMILES. Counter-ions that a name gives are not always drawn.

With `Cc1cc(=O)[nH]c(=O)[nH]1` [6-methyluracil], the protection against radiation result in series [1] was “can protect against radiation”. The antibiotic action entry in series [2] is on record as “has an antibiotic action”.

As for `Cc1[nH]c(=O)n(C)c(=O)c1NC(=O)COc1ccc(Cl)cc1` [Example 1, 5-(p-Chlorophenoxy-acetamido)-1,4-dimethyluracil], the 50% lethal dose (LD50) (in general, the dose at which mortality reaches 50%) in series [3] was more than 1700 mg/kg. Same read-out and setting: in the case of `Cc1[nH]c(=O)[nH]c(=O)c1NC(=O)COc1ccc(Cl)cc1` [Example 2, 5-(p-Chlorophenoxy-acetamido)-4-methyluracil] it was 800 mg/kg. `Cc1c(NC(=O)COc2ccc(Cl)cc2)c(=O)n(C)c(=O)n1C` [Example 3] registered a 50% lethal dose (LD50) in series [3] of more than 1700 mg/kg. Same read-out and setting: in the case of `Cn1c(N)c(NC(=O)COc2ccc(Cl)cc2)c(=O)n(C)c1=O` [Example 4, 4-amino-5-(p-Chlorophenoxy-acetamido)-1,3-dimethyluracil] it was more than 1700 mg/kg; in that of `CN(C)CCOC(=O)COc1ccc(Cl)cc1` [Meclofenoxate HCl], 856 mg/kg. Still for that read-out and setting: in the case of `NC(=O)CN1CCCC1=O` [Piracetam] it was more than 2000 mg/kg.

Values taken from patent US5185341A, “Substituted 5-(phenoxyalkanoylamino)-uracil compounds, methods for making same and pharmaceutical compositions based on same” (Arzneimittelwerk Dresden GMBH, priority 1990, dated 1993).
